The target in the first assay is AMPK. The experiment in a line: AMPK activation, enzyme-linked immunosorbent assay. Format: biochemical. Conditions: compounds of Table 1 (Table 6).
As usually defined, the EC50 is the concentration that produces a half-maximal response. Low values mean an effect from little substance, high ones a need for much substance. Compound `CC(C)(C)OC(=O)N1CCC(NC(=O)c2cc3ccc(OC4CCN(c5ccc(OC(F)(F)F)cc5)CC4)cc3o2)CC1` [1-81, tert-butyl 4-(6-(1-(4-(trifluoromethoxy)phenyl)piperidin-4-yloxy)benzofuran-2-carboxamido)piperidine-1-carboxylate] had an EC50 of 100 to 500 nM. As for `O=C(NC1CCN(Cc2ccncc2)CC1)c1ccc(OC2CCN(c3ccc(C(F)(F)F)cc3)CC2)nc1` [1-10, N-(1-(pyridin-4-ylmethyl)piperidin-4-yl)-6-(1-(4-(trifluoromethyl)phenyl)piperidin-4-yloxy)nicotinamide], the EC50 is below 100 nM.

On to `N#Cc1ccc(CN2CCC(NC(=O)c3ccc(OC4CCN(c5ccc(C(F)(F)F)cc5)CC4)nc3)CC2)cc1` [1-35, N-(1-(4-cyanobenzyl)piperidin-4-yl)-6-(1-(4-(trifluoromethyl)phenyl)piperidin-4-yloxy)nicotinamide], for which the EC50 is 100 to 500 nM. Regarding `N#Cc1ccc(CN2CC[C@H](NC(=O)c3ccc(OC4CCN(c5ccc(C(F)(F)F)cc5)CC4)cn3)C2)cc1` [1-31, (S)-N-(1-(4-cyanobenzyl)pyrrolidin-3-yl)-5-(1-(4-(trifluoromethyl)phenyl)piperidin-4-yloxy)picolinamide], the EC50 is below 100 nM. In turn, `O=C(N[C@@H]1CCNC1)c1cc2cc(OC3CCN(c4ccc(C(F)(F)F)cc4)CC3)ccc2o1` [1-121, (R)-N-(pyrrolidin-3-yl)-5-(1-(4-(trifluoromethyl)phenyl)piperidin-4-yloxy)benzofuran-2-carboxamide] gave an EC50 above 10000 nM. `O=C(NC1CCN(Cc2ccncc2)CC1)c1cc2cc(OC3CCN(c4ccc(OC(F)(F)F)cc4)CC3)ccc2o1` [1-78, N-(1-(pyridin-4-ylmethyl)piperidin-4-yl)-5-(1-(4-(trifluoromethoxy)phenyl)piperidin-4-yloxy)benzofuran-2-carboxamide] displayed an EC50 below 100 nM.

Take `Cc1c(C(=O)NC2CCN(Cc3cccnc3)CC2)oc2cc(OC3CCN(c4ccc(C(F)(F)F)cc4)CC3)ccc12` [1-69, 3-methyl-N-(1-(pyridin-3-ylmethyl)piperidin-4-yl)-6-(1-(4-(trifluoromethyl)phenyl)piperidin-4-yloxy)benzofuran-2-carboxamide]: the EC50 is below 100 nM. `O=C(NC1CCN(Cc2ccccc2)CC1)c1cc2cc(OC3CCN(Cc4ccc(Cl)cc4)CC3)ccc2o1` [1-72, N-(1-benzylpiperidin-4-yl)-5-(1-(4-chlorobenzyl)piperidin-4-yloxy)benzofuran-2-carboxamide] came in with an EC50 of 100 to 500 nM. On the same count and under the same terms, to `CN(C(=O)c1cc2cc(OC3CCN(c4ccc(C(F)(F)F)cc4)CC3)ccc2o1)C1CCN(C(=O)c2ccncc2)CC1` [1-118, N-(1-isonicotinoylpiperidin-4-yl)-N-methyl-5-(1-(4-(trifluoromethyl)phenyl)piperidin-4-yloxy)benzofuran-2-carboxamide] belongs 100 to 500 nM; to `CC(C)(C)OC(=O)N1CCC(NC(=O)c2sc3cc(OC4CCN(c5ccc(C(F)(F)F)cc5)CC4)ccc3c2Cl)CC1` [1-147, tert-butyl 4-(3-chloro-6-(1-(4-(trifluoromethyl)phenyl)piperidin-4-yloxy)benzo[b]thiophene-2-carboxamido)piperidine-1-carboxylate], 1000 to 5000 nM; to `O=C(NC1CCNCC1)c1cc2ccc(OC3CCN(c4ccc(OC(F)(F)F)cc4)CC3)cc2o1` [1-83, N-(piperidin-4-yl)-6-(1-(4-(trifluoromethoxy)phenyl)piperidin-4-yloxy)benzofuran-2-carboxamide], 100 to 500 nM. As to `O=C(NC1CCN(S(=O)(=O)c2cccnc2)CC1)c1cc2ccc(OC3CCN(c4ccc(OC(F)(F)F)cc4)CC3)cc2o1` [1-108, N-(1-(pyridin-3-ylsulfonyl)piperidin-4-yl)-6-(1-(4-(trifluoromethoxy)phenyl)piperidin-4-yloxy)benzofuran-2-carboxamide], the concentration giving a half-maximal response (EC50) was in the range of 100 to 500 nM. The same measure, in the same setting: the result for `O=C(NC1CCN(Cc2ccncc2)CC1)c1cncc(OC2CCN(c3ccc(C(F)(F)F)cc3)CC2)c1` [1-14, N-(1-(pyridin-4-ylmethyl)piperidin-4-yl)-5-(1-(4-(trifluoromethyl)phenyl)piperidin-4-yloxy)nicotinamide] reads below 100 nM.

The assay is the same for the next values; noted with them: compounds of Table 2 (Table 7).
As for `N#Cc1ccc(CN2CCC(NC(=O)c3ccc4[nH]c5c(c4c3)CN(S(=O)(=O)c3cccnc3)CC5)CC2)cc1` [2-26, N-(1-(4-cyanobenzyl)piperidin-4-yl)-2-(pyridin-3-ylsulfonyl)-2,3,4,5-tetrahydro-1H-pyrido[4,3-b] indole-8-carboxamide], the concentration for a half-maximal effect (EC50) was in the range of 10000 to 50000 nM.

Consider `O=C(NC1CCN(S(=O)(=O)c2ccc(F)cc2)CC1)c1ccc2[nH]c3c(c2c1)CN(c1ccc(F)cc1)CC3` [2-35, 2-(4-fluorophenyl)-N-(1-(4-fluorophenylsulfonyl)piperidin-4-yl)-2,3,4,5-tetrahydro-1H-pyrido[4,3-b]indole-8-carboxamide], for which the EC50 fell in the range of 10000 to 50000 nM.

The compound `Cn1c2c(c3cc(C(=O)NC4CCN(Cc5cccnc5)CC4)ccc31)CN(Cc1ccc(C(F)(F)F)cc1)CC2` [2-18, 5-methyl-N-(1-(pyridin-3-ylmethyl)piperidin-4-yl)-2-(4-(trifluoromethyl)benzyl)-2,3,4,5-tetrahydro-1H-pyrido[4,3-b]indole-8-carboxamide] displayed an EC50 of 1000 to 5000 nM.

Still in this assay, the particulars now being: compounds of Table 5 (Table 10).
As to `COc1ccc(CN2CCC(Oc3ccc(C(=O)NCCCNC(=O)OC(C)(C)C)cc3Cl)CC2)cc1` [5-97, tert-butyl 3-(3-chloro-4-(1-(4-methoxybenzyl)piperidin-4-yloxy)benzamido)propylcarbamate], the EC50 fell in the range of 1000 to 10000 nM.

Consider `O=C(NC1CCN(Cc2ccccc2)CC1)c1ccc(OC2CCN(Cc3ccc(C(F)(F)F)cc3)CC2)c(Cl)c1` [5-56, N-(1-benzylpiperidin-4-yl)-3-chloro-4-(1-(4-(trifluoromethyl)benzyl)piperidin-4-yloxy)benzamide], for which the EC50 is below 1000 nM. In the case of `CC(C)(C)OC(=O)N1CCN(C(=O)c2ccc(OC3CCN(Cc4ccccc4)CC3)cc2)CC1` [5-99, tert-butyl 4-(4-(1-benzylpiperidin-4-yloxy)benzoyl)piperazine-1-carboxylate], the EC50 was in the range of 1000 to 10000 nM. Compound `O=C(NC1CCN(Cc2ccccc2)CC1)c1ccc(OC2CCN(Cc3ccccc3C(F)(F)F)CC2)c(Cl)c1` [5-24, N-(1-benzylpiperidin-4-yl)-3-chloro-4-(1-(2-(trifluoromethyl)benzyl)piperidin-4-yloxy)benzamide] yielded an EC50 of 10000 to 20000 nM. With `O=C(NC1CCN(Cc2ccccc2)CC1)c1ccc(OC2CCN(Cc3ccncc3)CC2)c(F)c1` [5-37, N-(1-benzylpiperidin-4-yl)-3-fluoro-4-(1-(pyridin-4-ylmethyl)piperidin-4-yloxy)benzamide], the EC50 was below 1000 nM. `O=C(NC1CCN(Cc2ccc(Cl)cc2)CC1)c1ccc(OC2CCN(Cc3ccc(F)c(F)c3)CC2)c(F)c1` [5-71, N-(1-(4-chlorobenzyl)piperidin-4-yl)-4-(1-(3,4-difluorobenzyl)piperidin-4-yloxy)-3-fluorobenzamide]: the EC50 was below 1000 nM. On to `CC(c1ccccc1)N1CCC(Oc2ccc(C(=O)NC3CCN(Cc4ccccc4)CC3)cc2F)CC1` (stereo not shown) [5-21, N-(1-benzylpiperidin-4-yl)-3-fluoro-4-(1-(1-phenylethyl)piperidin-4-yloxy)benzamide], for which the EC50 lay in the range of 1000 to 10000 nM.

Turning to `N#Cc1ccc(CN2CCC(NC(=O)c3ccc(OC4CCN(c5ccc(C(F)(F)F)cc5)CC4)c(F)c3)CC2)cc1` [5-43, N-(1-(4-cyanobenzyl)piperidin-4-yl)-3-fluoro-4-(1-(4-(trifluoromethyl)phenyl)piperidin-4-yloxy)benzamide], the EC50 is below 1000 nM. As to `CC(C)(C)OC(=O)NCCCNC(=O)c1ccc(OC2CCN(Cc3ccccc3)CC2)c(Cl)c1` [5-102, tert-butyl 3-(4-(1-benzylpiperidin-4-yloxy)-3-chlorobenzamido)propylcarbamate], the EC50 was in the range of 10000 to 20000 nM.

Source of the values: patent US9511058B2, “Methods for using carboxamide, sulfonamide and amine compounds” (Rigel Pharmaceuticals, Inc., priority 2010, dated 2016).
